# Assays:
# [1] = tested on: barnyardgrass; experiment: Test A preemergence; assay type: in vivo, Echinochloa crus-galli; conditions: preemergence; for Barnyardgrass plant response rating (0 to 100 scale, 0 is no effect, 100 is complete control): 125 g ai/ha, visual injury approx. 10 days after treatment; for Barnyardgrass plant response rating: 500 g ai/ha, visual injury after approx. 10 days, 0 to 100 scale (0 no effect, 100 complete control)
# Outline: (§1)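 After sowing in a sand–loam mix, pots received compound preemergence by directed soil spray, or postemergence once plants reached the one- to two-leaf stage (2–10 cm). Formulation contained surfactant in a non-phytotoxic solvent. Injury was scored visually after ~10 greenhouse days, 0–100 scale.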
# [2] = tested on: crabgrass, large; experiment: Test A preemergence; assay type: in vivo, Digitaria sanguinalis; conditions: preemergence; for Crabgrass, Large plant response rating (0 to 100 scale): 125 g ai/ha, visual injury approx. 10 days after treatment; for Crabgrass, Large plant response rating: 500 g ai/ha, visual injury after approx. 10 days, 0 to 100 scale (0 no effect, 100 complete control)
# Outline: as §1
# [3] = tested on: morningglory; experiment: Test A preemergence; assay type: in vivo, Ipomoea spp.; conditions: preemergence; for Morningglory plant response rating (0 to 100 scale): 125 g ai/ha, visual injury approx. 10 days after treatment; for Morningglory plant response rating: 500 g ai/ha, visual injury after approx. 10 days, 0 to 100 scale (0 no effect, 100 complete control)
# Outline: as §1
# [4] = tested on: pigweed; experiment: Test A preemergence; assay type: in vivo, Amaranthus retroflexus; conditions: preemergence; for Pigweed plant response rating (0 to 100 scale): 125 g ai/ha, visual injury approx. 10 days after treatment; for Pigweed plant response rating: 500 g ai/ha, visual injury after approx. 10 days, 0 to 100 scale (0 no effect, 100 complete control)
# Outline: as §1
# [5] = tested on: velvetleaf; experiment: Test A preemergence; assay type: in vivo, Abutilon theophrasti; conditions: preemergence; for Velvetleaf plant response rating (0 to 100 scale): 125 g ai/ha, visual injury approx. 10 days after treatment; for Velvetleaf plant response rating: 500 g ai/ha, visual injury after approx. 10 days, 0 to 100 scale (0 no effect, 100 complete control)
# Outline: as §1
# [6] = tested on: corn; experiment: Test A preemergence; assay type: in vivo, Zea mays; conditions: preemergence; for Corn plant response rating (0 to 100 scale): 125 g ai/ha, visual injury approx. 10 days after treatment; for Corn plant response rating: 500 g ai/ha, visual injury after approx. 10 days, 0 to 100 scale (0 no effect, 100 complete control)
# Outline: as §1
# [7] = tested on: barnyardgrass; experiment: Test A postemergence; assay type: in vivo, Echinochloa crus-galli
# Outline: as §1
# [8] = tested on: crabgrass, large; experiment: Test A postemergence; assay type: in vivo, Digitaria sanguinalis
# Outline: as §1
# [9] = tested on: pigweed; experiment: Test A postemergence; assay type: in vivo, Amaranthus retroflexus
# Outline: as §1
# [10] = tested on: velvetleaf; experiment: Test A postemergence; assay type: in vivo, Abutilon theophrasti
# Outline: as §1
# [11] = tested on: rice; experiment: Test B flood; assay type: in vivo, Oryza sativa; conditions: 250 g ai/ha, visual rating on 0 to 100 scale (0 no effect, 100 complete control), 13 to 15 days
# Outline: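 Plants were grown to the 2-leaf stage, then pots were flooded to 3 cm above the soil and compounds were applied directly into the paddy water. Water depth was held for the whole test; after 13 to 15 days in a greenhouse, injury was visually rated against untreated controls (0 = no effect, 100 = complete control).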
# [12] = tested on: blackgrass; experiment: Test C preemergence; assay type: in vivo, Alopecurus myosuroides; conditions: preemergence; for Plant response rating, Blackgrass: 125 g ai/ha, scale 0 to 100, 0 = no effect, 100 = complete control
# Outline: (§2)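 Herbicidal effect is expressed as percent visual control (0–100) judged against untreated plants 13 to 15 days after treatment in the greenhouse. Preemergence pots contained seeds in a soil–sand blend; postemergence plants, 2–18 cm tall, grew in peat-based planting medium.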
# [13] = tested on: wheat; experiment: Test C preemergence; assay type: in vivo, Triticum aestivum; conditions: preemergence; for Plant response rating, Wheat: 125 g ai/ha, scale 0 to 100, 0 = no effect, 100 = complete control
# Outline: as §2
# [14] = tested on: corn; experiment: Test C preemergence; assay type: in vivo, Zea mays; conditions: preemergence; for Plant response rating, Corn: 125 g ai/ha, scale 0 to 100, 0 = no effect, 100 = complete control
# Outline: as §2
# [15] = tested on: oilseed rape; experiment: Test C preemergence; assay type: in vivo, Brassica napus; conditions: preemergence; for Plant response rating, Oilseed Rape: 125 g ai/ha, scale 0 to 100, 0 = no effect, 100 = complete control
# Outline: as §2
# [16] = Postemergence, 500 g ai/ha, 0 to 100 scale (0 no effect, 100 complete control)
# [17] = postemergence, 125 g ai/ha, about 10 days, visual rating on 0 to 100 scale (0 no effect, 100 complete control)
# [18] = 31 g ai/ha, visual rating, scale 0 to 100 (0 no effect, 100 complete control), 13 to 15 days
# [19] = 62 g ai/ha, scale 0 to 100 (0 no effect, 100 complete control), 13 to 15 days
# [20] = 250 g ai/ha, scale 0 to 100, 0 is no effect, 100 is complete control
# [21] = Postemergence, 125 g ai/ha, 0 to 100 scale, 0 no effect, 100 complete control
Compound,"Barnyardgrass plant response rating (0 to 100 scale, 0 is no effect, 100 is complete control) [1]",Barnyardgrass plant response rating [1],"Crabgrass, Large plant response rating (0 to 100 scale) [2]","Crabgrass, Large plant response rating [2]",Morningglory plant response rating (0 to 100 scale) [3],Morningglory plant response rating [3],Pigweed plant response rating (0 to 100 scale) [4],Pigweed plant response rating [4],Velvetleaf plant response rating (0 to 100 scale) [5],Velvetleaf plant response rating [5],Corn plant response rating (0 to 100 scale) [6],Corn plant response rating [6],"Barnyardgrass plant response rating [7, 16]","Barnyardgrass plant response rating [7, 17]","Crabgrass, Large plant response rating [8, 16]","Crabgrass, Large plant response rating [8, 17]","Pigweed plant response rating [9, 16]","Velvetleaf plant response rating [10, 16]","Plant response rating, Rice [11]","Blackgrass plant response rating [12, 18]",further results
CCNC(=O)c1cc(CCCl)n(Cc2ccnc(C(F)(F)F)c2)n1 [Compound 179],100,100,100,100,80,100,100,100,50,100,10,50,90,70,90,90,100,100,0,5,"Pigweed plant response rating [9, 17]: 100; Velvetleaf plant response rating [10, 17]: 70; Blackgrass plant response rating [12, 19]: 40; Plant response rating, Blackgrass ([12]; 13 to 15 days): 90; Blackgrass plant response rating [12, 20]: 95; Wheat plant response rating [13, 18]: 0; Wheat plant response rating [13, 19]: 0; Plant response rating, Wheat ([13]; 13 to 15 days): 80; Wheat plant response rating [13, 20]: 85; Corn plant response rating [14, 18]: 5; Corn plant response rating [14, 19]: 10; Plant response rating, Corn ([14]; 13 to 15 days): 30; Corn plant response rating [14, 20]: 95; Oilseed Rape plant response rating [15, 18]: 60; Oilseed Rape plant response rating [15, 19]: 85; Plant response rating, Oilseed Rape ([15]; 13 to 15 days): 100; Oilseed Rape plant response rating [15, 20]: 100"
CCCc1cc(C(=O)NOCC)nn1Cc1ccnc(C(F)(F)F)c1 [Compound 185],80,100,100,100,40,90,0,0,70,100,10,30,90,80,90,80,100,100,10,5,"Pigweed plant response rating [9, 21]: 60; Velvetleaf plant response rating [10, 21]: 10; Blackgrass plant response rating [12, 19]: 10; Plant response rating, Blackgrass ([12]; 13 to 15 days): 90; Blackgrass plant response rating [12, 20]: 80; Wheat plant response rating [13, 18]: 0; Wheat plant response rating [13, 19]: 60; Plant response rating, Wheat ([13]; 13 to 15 days): 85; Wheat plant response rating [13, 20]: 90; Corn plant response rating [14, 18]: 5; Corn plant response rating [14, 19]: 25; Plant response rating, Corn ([14]; 13 to 15 days): 45; Corn plant response rating [14, 20]: 75; Oilseed Rape plant response rating [15, 18]: 70; Oilseed Rape plant response rating [15, 19]: 80; Plant response rating, Oilseed Rape ([15]; 13 to 15 days): 85; Oilseed Rape plant response rating [15, 20]: 100"
CCOc1cc(C(=O)NC(C)C)nn1Cc1ccnc(C(F)(F)F)c1 [Compound 188],100,100,100,100,100,100,100,100,100,100,100,100,90,90,90,90,100,100,60,90,"Pigweed plant response rating [9, 21]: 100; Velvetleaf plant response rating [10, 21]: 100; Blackgrass plant response rating [12, 19]: 90; Plant response rating, Blackgrass ([12]; 13 to 15 days): 90; Blackgrass plant response rating [12, 20]: 90; Wheat plant response rating [13, 18]: 85; Wheat plant response rating [13, 19]: 90; Plant response rating, Wheat ([13]; 13 to 15 days): 90; Wheat plant response rating [13, 20]: 90; Corn plant response rating [14, 18]: 55; Corn plant response rating [14, 19]: 85; Plant response rating, Corn ([14]; 13 to 15 days): 98; Corn plant response rating [14, 20]: 98; Oilseed Rape plant response rating [15, 18]: 100; Oilseed Rape plant response rating [15, 19]: 100; Plant response rating, Oilseed Rape ([15]; 13 to 15 days): 100; Oilseed Rape plant response rating [15, 20]: 100"
CCOc1cc(C(=O)NC2CC2)nn1Cc1ccnc(C(F)(F)F)c1 [Compound 189],90,100,100,100,100,100,0,0,100,100,80,100,90,90,90,90,100,100,45,90,"Pigweed plant response rating [9, 21]: 80; Velvetleaf plant response rating [10, 21]: 100; Blackgrass plant response rating [12, 19]: 90; Plant response rating, Blackgrass ([12]; 13 to 15 days): 90; Blackgrass plant response rating [12, 20]: 90; Wheat plant response rating [13, 18]: 40; Wheat plant response rating [13, 19]: 80; Plant response rating, Wheat ([13]; 13 to 15 days): 90; Wheat plant response rating [13, 20]: 90; Corn plant response rating [14, 18]: 5; Corn plant response rating [14, 19]: 40; Plant response rating, Corn ([14]; 13 to 15 days): 85; Corn plant response rating [14, 20]: 98; Oilseed Rape plant response rating [15, 18]: 98; Oilseed Rape plant response rating [15, 19]: 95; Plant response rating, Oilseed Rape ([15]; 13 to 15 days): 95; Oilseed Rape plant response rating [15, 20]: 95"
CCONC(=O)c1cc(OCC)n(Cc2ccnc(C(F)(F)F)c2)n1 [Compound 195],90,100,100,100,90,100,100,100,80,100,0,90,90,70,100,80,100,100,10,5,"Pigweed plant response rating [9, 21]: 100; Velvetleaf plant response rating [10, 21]: 70; Blackgrass plant response rating [12, 19]: 90; Plant response rating, Blackgrass ([12]; 13 to 15 days): 90; Blackgrass plant response rating [12, 20]: 90; Wheat plant response rating [13, 18]: 0; Wheat plant response rating [13, 19]: 45; Plant response rating, Wheat ([13]; 13 to 15 days): 85; Wheat plant response rating [13, 20]: 90; Corn plant response rating [14, 18]: 25; Corn plant response rating [14, 19]: 45; Plant response rating, Corn ([14]; 13 to 15 days): 70; Corn plant response rating [14, 20]: 95; Oilseed Rape plant response rating [15, 18]: 30; Oilseed Rape plant response rating [15, 19]: 85; Plant response rating, Oilseed Rape ([15]; 13 to 15 days): 95; Oilseed Rape plant response rating [15, 20]: 98"

# From patent US20150105252A1, “SUBSTITUTED PYRAZOLES AS HERBICIDES” (E I DU PONT DE NEMOURS AND COMPANY, priority 2013, published 2015)
